According to patent publication US11117892B2, “Pyrrolo-pyridine derivative compound, method for preparing same, and pharmaceutical composition containing same as active ingredient for prevention or treatment of protein kinase-related diseases” (DAEGU-GYEONGBUK MEDICAL INNOVATION FOUNDATION, priority 2017, dated 2021):

Key:
Assay in all cases: scanMAX Kinase assay panel
Format in all cases: binding
Details in all cases: read-out: % control
AKT3 = AKT3 (Homo sapiens (Human), UniProt Q9Y243)
In short: (§1)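 Using scanMAX, compound selectivity across kinases is determined. The output is % control, bounded by a DMSO control at 100% and a reference positive compound at 0%.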

ALK(C1156Y) = ALK(C1156Y) (Homo sapiens (Human), UniProt Q9UM73, C1156Y)
In short: as §1

AURKA = AURKA (Homo sapiens (Human), UniProt O14965)
In short: as §1

BMPR1A = BMPR1A (Homo sapiens (Human), UniProt P36894)
In short: as §1

BMX = BMX (Homo sapiens (Human), UniProt P51813)
In short: as §1

BRAF(V600E) = BRAF(V600E) (Homo sapiens (Human), UniProt P15056, V600E)
In short: as §1

CDKL5 = CDKL5 (Homo sapiens (Human), UniProt O76039)
In short: as §1

CHEK2 = CHEK2 (Homo sapiens (Human), UniProt O96017)
In short: as §1

CSF1R = CSF1R (Homo sapiens (Human), UniProt P07333)
In short: as §1

CSNK1G1 = CSNK1G1 (Homo sapiens (Human), UniProt Q9HCP0)
Chain of CSNK1G1 (Q9HCP0 whole entry): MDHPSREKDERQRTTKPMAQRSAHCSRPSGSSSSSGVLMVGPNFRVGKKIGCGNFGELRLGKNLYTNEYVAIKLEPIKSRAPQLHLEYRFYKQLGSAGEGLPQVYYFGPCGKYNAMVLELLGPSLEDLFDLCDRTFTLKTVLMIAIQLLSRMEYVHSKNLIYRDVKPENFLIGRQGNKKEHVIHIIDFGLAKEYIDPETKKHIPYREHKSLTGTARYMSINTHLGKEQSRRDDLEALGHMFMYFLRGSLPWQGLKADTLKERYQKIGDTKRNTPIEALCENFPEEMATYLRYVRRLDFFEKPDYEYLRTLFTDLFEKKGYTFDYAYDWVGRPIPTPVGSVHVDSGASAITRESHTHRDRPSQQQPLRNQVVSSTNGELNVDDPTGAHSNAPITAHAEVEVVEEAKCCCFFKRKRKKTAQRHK
In short: as §1

DAPK1 = DAPK1 (Homo sapiens (Human), UniProt P53355)
In short: as §1

DCAMKL1 = DCAMKL1 (Homo sapiens (Human), UniProt O15075)
Chain of DCAMKL1 (O15075 whole entry, looked up): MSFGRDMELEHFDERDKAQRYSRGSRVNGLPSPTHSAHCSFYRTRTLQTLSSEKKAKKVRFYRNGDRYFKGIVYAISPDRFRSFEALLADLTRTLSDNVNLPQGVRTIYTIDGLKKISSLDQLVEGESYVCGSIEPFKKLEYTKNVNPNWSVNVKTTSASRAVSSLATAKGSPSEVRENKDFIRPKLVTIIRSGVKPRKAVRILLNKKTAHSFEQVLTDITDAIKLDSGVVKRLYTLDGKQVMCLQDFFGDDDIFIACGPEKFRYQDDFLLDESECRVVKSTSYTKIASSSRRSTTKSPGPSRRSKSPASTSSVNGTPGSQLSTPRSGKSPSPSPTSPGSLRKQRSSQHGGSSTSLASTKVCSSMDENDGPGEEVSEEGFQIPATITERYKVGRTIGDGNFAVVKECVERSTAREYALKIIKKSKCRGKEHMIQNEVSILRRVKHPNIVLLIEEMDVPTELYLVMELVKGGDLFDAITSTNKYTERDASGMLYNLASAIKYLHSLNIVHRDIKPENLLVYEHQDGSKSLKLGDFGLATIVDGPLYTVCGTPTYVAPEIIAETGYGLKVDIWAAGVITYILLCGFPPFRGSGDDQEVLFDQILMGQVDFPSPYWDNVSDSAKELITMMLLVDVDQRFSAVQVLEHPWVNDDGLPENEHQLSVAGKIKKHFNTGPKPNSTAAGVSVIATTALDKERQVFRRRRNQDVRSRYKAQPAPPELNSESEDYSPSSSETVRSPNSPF
In short: as §1

EPHA1 = EPHA1 (Homo sapiens (Human), UniProt P21709)
In short: as §1

EPHA7 = EPHA7 (Homo sapiens (Human), UniProt Q15375)
In short: as §1

ERK8 = ERK8 (Homo sapiens (Human), UniProt Q8TD08)
Chain of ERK8 (Q8TD08 whole entry): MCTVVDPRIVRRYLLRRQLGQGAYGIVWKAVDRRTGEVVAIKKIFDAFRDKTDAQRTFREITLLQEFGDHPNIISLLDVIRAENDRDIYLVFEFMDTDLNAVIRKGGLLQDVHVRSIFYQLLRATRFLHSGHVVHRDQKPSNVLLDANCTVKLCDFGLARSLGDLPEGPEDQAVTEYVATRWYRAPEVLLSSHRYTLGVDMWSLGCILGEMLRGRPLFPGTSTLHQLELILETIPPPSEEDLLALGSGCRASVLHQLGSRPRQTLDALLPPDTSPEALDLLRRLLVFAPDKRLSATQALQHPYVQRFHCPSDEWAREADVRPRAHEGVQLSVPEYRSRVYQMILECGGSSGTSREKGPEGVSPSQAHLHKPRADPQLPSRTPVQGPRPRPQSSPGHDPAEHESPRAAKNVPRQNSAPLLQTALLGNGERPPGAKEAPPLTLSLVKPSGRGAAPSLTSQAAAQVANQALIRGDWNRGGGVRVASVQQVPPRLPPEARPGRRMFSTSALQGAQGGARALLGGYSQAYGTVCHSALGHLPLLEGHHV
In short: as §1

FLT3 = FLT3 (Homo sapiens (Human), UniProt P36888)
In short: as §1

FLT3(N841I) = FLT3(N841I) (Homo sapiens (Human), UniProt P36888, N841I)
In short: as §1

HUNK = HUNK (Homo sapiens (Human), UniProt P57058)
In short: as §1

IGF1R = IGF1R (Homo sapiens (Human), UniProt P08069)
In short: as §1

MAK = MAK (Homo sapiens (Human), UniProt P20794)
In short: as §1

MAP4K2 = MAP4K2 (Homo sapiens (Human), UniProt Q12851)
In short: as §1

NDR2 = NDR2 (Homo sapiens (Human), UniProt Q9Y2H1)
Chain of NDR2 (Q9Y2H1 whole entry): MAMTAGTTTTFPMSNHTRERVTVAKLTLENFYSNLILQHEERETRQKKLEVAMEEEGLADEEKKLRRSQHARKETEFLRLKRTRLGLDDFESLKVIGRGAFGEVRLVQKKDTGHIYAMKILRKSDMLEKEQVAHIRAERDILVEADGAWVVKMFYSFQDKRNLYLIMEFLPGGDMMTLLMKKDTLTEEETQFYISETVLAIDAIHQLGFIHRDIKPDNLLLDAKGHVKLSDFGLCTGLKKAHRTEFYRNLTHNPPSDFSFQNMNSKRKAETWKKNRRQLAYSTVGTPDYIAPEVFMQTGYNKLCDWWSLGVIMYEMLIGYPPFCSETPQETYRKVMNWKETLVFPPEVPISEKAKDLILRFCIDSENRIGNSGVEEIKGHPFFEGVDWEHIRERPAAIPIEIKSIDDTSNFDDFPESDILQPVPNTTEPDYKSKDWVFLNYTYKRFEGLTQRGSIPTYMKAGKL
In short: as §1

NEK10 = NEK10 (Homo sapiens (Human), UniProt Q6ZWH5)
In short: as §1

PAK2 = PAK2 (Homo sapiens (Human), UniProt Q13177)
In short: as §1

PFTK1 = PFTK1 (Homo sapiens (Human), UniProt O94921)
In short: as §1

PIK3CA(H1047Y) = PIK3CA(H1047Y) (Homo sapiens (Human), UniProt P42336, H1047Y)
In short: as §1

PIK4CB = PIK4CB (Homo sapiens (Human), UniProt Q9UBF8)
In short: as §1

PIP5K2B = PIP5K2B (Homo sapiens (Human), UniProt P78356)
Chain of PIP5K2B (P78356 whole entry): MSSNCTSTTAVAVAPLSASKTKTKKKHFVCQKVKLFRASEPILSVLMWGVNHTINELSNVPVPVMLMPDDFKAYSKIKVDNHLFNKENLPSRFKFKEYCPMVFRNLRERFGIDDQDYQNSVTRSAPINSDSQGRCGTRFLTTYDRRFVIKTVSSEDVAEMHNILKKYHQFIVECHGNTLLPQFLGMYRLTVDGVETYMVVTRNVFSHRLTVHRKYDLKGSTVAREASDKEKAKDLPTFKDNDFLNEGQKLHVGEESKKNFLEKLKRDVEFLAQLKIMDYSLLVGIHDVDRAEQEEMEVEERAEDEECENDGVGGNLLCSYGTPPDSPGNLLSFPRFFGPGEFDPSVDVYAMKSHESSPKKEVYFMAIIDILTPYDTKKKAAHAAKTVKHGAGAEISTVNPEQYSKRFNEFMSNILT
In short: as §1

PKMYT1 = PKMYT1 (Homo sapiens (Human), UniProt Q99640)
In short: as §1

PRKCH = PRKCH (Homo sapiens (Human), UniProt P24723)
In short: as §1

SRPK3 = SRPK3 (Homo sapiens (Human), UniProt Q9UPE1)
Chain of SRPK3 (Q9UPE1 whole entry): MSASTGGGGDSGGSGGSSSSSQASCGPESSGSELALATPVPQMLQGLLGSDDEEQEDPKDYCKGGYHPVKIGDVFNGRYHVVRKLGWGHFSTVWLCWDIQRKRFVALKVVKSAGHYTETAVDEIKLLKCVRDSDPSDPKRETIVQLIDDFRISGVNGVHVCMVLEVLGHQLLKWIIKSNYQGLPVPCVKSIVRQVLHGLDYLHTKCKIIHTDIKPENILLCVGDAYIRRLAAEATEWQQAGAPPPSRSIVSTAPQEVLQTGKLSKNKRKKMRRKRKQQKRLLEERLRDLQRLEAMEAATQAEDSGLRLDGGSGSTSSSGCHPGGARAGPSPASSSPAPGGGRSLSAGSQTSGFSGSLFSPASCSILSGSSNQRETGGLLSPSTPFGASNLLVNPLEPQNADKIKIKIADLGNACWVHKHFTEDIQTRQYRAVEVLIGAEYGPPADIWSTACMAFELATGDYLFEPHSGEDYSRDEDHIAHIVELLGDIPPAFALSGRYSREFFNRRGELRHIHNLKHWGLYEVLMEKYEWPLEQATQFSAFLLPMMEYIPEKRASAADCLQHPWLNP
In short: as §1

TAOK3 = TAOK3 (Homo sapiens (Human), UniProt Q9H2K8)
In short: as §1

TNK1 = TNK1 (Homo sapiens (Human), UniProt Q13470)
In short: as §1

TNK2 = TNK2 (Homo sapiens (Human), UniProt Q07912)
In short: as §1

TSSK1B = TSSK1B (Homo sapiens (Human), UniProt Q9BXA7)
In short: as §1

ULK1 = ULK1 (Homo sapiens (Human), UniProt O75385)
Chain of ULK1 (O75385 whole entry): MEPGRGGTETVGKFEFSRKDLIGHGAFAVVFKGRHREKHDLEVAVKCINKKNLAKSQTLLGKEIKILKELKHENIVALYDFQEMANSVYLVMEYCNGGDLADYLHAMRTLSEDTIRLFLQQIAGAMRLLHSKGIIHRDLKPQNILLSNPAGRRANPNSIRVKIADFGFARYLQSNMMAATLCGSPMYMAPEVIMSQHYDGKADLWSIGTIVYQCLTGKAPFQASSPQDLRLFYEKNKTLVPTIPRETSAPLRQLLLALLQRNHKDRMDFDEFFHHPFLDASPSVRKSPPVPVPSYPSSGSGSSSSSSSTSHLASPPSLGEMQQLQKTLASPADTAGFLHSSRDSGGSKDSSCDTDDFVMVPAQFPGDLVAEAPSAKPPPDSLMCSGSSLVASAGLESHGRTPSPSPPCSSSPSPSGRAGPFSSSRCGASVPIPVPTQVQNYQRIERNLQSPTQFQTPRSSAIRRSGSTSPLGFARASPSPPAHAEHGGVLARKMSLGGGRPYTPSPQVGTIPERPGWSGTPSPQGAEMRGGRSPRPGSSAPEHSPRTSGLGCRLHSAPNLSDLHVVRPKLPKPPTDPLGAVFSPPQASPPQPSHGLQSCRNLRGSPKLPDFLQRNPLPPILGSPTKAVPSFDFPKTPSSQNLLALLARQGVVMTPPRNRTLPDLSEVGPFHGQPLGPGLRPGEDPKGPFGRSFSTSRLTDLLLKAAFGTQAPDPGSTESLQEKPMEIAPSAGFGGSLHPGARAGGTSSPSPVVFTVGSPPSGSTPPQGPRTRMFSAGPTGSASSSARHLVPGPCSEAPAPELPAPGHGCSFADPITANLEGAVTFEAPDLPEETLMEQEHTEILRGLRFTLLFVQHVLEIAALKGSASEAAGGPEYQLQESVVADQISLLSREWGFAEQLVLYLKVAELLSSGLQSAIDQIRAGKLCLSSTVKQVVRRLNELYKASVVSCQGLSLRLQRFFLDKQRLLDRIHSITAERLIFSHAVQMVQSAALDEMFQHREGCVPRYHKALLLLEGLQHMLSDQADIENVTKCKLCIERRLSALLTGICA
In short: as §1

VRK2 = VRK2 (Homo sapiens (Human), UniProt Q86Y07)
Chain of VRK2 (Q86Y07 whole entry): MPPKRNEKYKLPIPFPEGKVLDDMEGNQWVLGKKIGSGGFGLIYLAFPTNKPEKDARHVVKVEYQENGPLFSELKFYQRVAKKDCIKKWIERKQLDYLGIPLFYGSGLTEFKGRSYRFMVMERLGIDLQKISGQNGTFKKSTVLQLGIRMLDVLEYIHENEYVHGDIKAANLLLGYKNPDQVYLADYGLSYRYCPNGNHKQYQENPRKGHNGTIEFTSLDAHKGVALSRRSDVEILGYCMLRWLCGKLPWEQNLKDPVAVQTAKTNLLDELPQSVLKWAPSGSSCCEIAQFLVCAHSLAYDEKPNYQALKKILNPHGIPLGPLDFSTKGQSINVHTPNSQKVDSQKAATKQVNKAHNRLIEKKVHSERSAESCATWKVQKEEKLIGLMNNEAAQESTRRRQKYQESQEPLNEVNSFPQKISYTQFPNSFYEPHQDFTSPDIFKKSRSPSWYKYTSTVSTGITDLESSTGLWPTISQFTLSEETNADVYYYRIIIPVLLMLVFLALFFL
In short: as §1

WEE1 = WEE1 (Homo sapiens (Human), UniProt P30291)
In short: as §1

WNK2 = WNK2 (Homo sapiens (Human), UniProt Q9Y3S1)
In short: as §1

SMILES | remaining binding at 1 µM (AKT3) [%] | remaining binding at 1 µM (ALK(C1156Y)) [%] | remaining binding at 1 µM (AURKA) [%] | remaining binding at 1 µM (BMPR1A) [%] | remaining binding at 1 µM (BMX) [%] | remaining binding at 1 µM (BRAF(V600E)) [%] | remaining binding at 1 µM (CDKL5) [%] | remaining binding at 1 µM (CHEK2) [%] | remaining binding at 1 µM (CSF1R) [%] | remaining binding at 1 µM (CSNK1G1) [%] | remaining binding at 1 µM (DAPK1) [%] | remaining binding at 1 µM (DCAMKL1) [%] | remaining binding at 1 µM (EPHA1) [%] | remaining binding at 1 µM (EPHA7) [%] | remaining binding at 1 µM (ERK8) [%] | remaining binding at 1 µM (FLT3) [%] | remaining binding at 1 µM (FLT3(N841I)) [%] | remaining binding at 1 µM (HUNK) [%] | remaining binding at 1 µM (IGF1R) [%] | remaining binding at 1 µM (MAK) [%] | further results
CCNc1cc(Nc2ccc(C(=O)N3CCC(N4CCOCC4)CC3)cc2OC)nc2[nH]cc(C(F)(F)F)c12 [Example 57, (4-((4-(ethylamino)-3-(trifluoromethyl)-1H-pyrrolo[2,3-b]pyridin-6-yl)amino)-3-methoxyphenyl) (4-morpholinopiperidin-1-yl)methanone] | 96 | 3.5 | 83 | 80 | 89 | 94 | 91 | 47 | 72 | 88 | 70 | 86 | 78 | 100 | 93 | 100 | 85 | 51 | 71 | 95 | remaining binding at 1 µM (MAP4K2): 100%; remaining binding at 1 µM (NDR2): 80%; remaining binding at 1 µM (NEK10): 100%; remaining binding at 1 µM (PAK2): 40%; remaining binding at 1 µM (PFTK1): 95%; remaining binding at 1 µM (PIK3CA(H1047Y)): 73%; remaining binding at 1 µM (PIK4CB): 100%; remaining binding at 1 µM (PIP5K2B): 100%; remaining binding at 1 µM (PKMYT1): 96%; remaining binding at 1 µM (PRKCH): 99%; remaining binding at 1 µM (SRPK3): 100%; remaining binding at 1 µM (TAOK3): 100%; remaining binding at 1 µM (TNK1): 100%; remaining binding at 1 µM (TNK2): 86%; remaining binding at 1 µM (TSSK1B): 53%; remaining binding at 1 µM (ULK1): 94%; remaining binding at 1 µM (VRK2): 100%; remaining binding at 1 µM (WEE1): 100%; remaining binding at 1 µM (WNK2): 100%
CCNc1cc(Nc2ccc(C(=O)N3CCC(N4CCOCC4)CC3)cc2OC)nc2[nH]cc(C#N)c12 [Example 18, 4-(ethylamino)-6-((2-methoxy-4-(4-morpholinopiperidine-1-carbonyl)phenyl)amino)-1H-pyrrolo[2,3-b]pyridine-3-carbonitrile] | 96 | 2.4 | 94 | 74 | 75 | 87 | 100 | 4.1 | 73 | 43 | 16 | 85 | 91 | 94 | 99 | 83 | 89 | 57 | 74 | 92 | remaining binding at 1 µM (MAP4K2): 61%; remaining binding at 1 µM (NDR2): 95%; remaining binding at 1 µM (NEK10): 73%; remaining binding at 1 µM (PAK2): 82%; remaining binding at 1 µM (PFTK1): 89%; remaining binding at 1 µM (PIK3CA(H1047Y)): 71%; remaining binding at 1 µM (PIK4CB): 80%; remaining binding at 1 µM (PIP5K2B): 87%; remaining binding at 1 µM (PKMYT1): 90%; remaining binding at 1 µM (PRKCH): 95%; remaining binding at 1 µM (SRPK3): 96%; remaining binding at 1 µM (TAOK3): 94%; remaining binding at 1 µM (TNK1): 81%; remaining binding at 1 µM (TNK2): 92%; remaining binding at 1 µM (TSSK1B): 34%; remaining binding at 1 µM (ULK1): 78%; remaining binding at 1 µM (VRK2): 87%; remaining binding at 1 µM (WEE1): 100%; remaining binding at 1 µM (WNK2): 91%
